Results taken from US20220395500A1, “SMALL MOLECULE ACTIVATORS OF INTERFERON REGULATORY FACTOR 3 AND METHODS OF USE THEREOF” (Neuralexo, Inc., priority 2020, published 2022).

Columns and labels:
[1] = THP1-Dual cytotoxicity (Cell Titer Glo, ATP); type: cell-based, human; conditions: human, THP1-Dual cells, read-out: Thp1 cytotox CC50
Text: FIG. 9C is a CC50 (50% cytotoxic concentration) graph of AV-C dependent IRF activation in THP1-Dual cells, determined with an 8-point dose response experiment. Cell viability was monitored based on quantitation of ATP present, as an indicator of metabolically active cells, where luminescence is proportional to the amount of ATP present, using Cell-Titer Glo (Promega).
The OTRADI Small Molecule Library of approximately 246,000 diverse compounds (see below for description) was screened using the THP1-Dual based HTS platform described above. All transfer steps in the screen are fully automated, thus reducing variability. Primary screening included a single data point or dose for each molecule. After data normalization was applied for each assay run, “hit” selection was performed on the plates that pass the quality control (QC) criterion. Hits were defined as samples having values above the activity cutoff determined based on noise level of the assay to reduce false positive rates. In the pilot study discussed above this activity value was >3σ above the ISRE mean with the added criteria of NFκB activation being lower than […] from the mean to identify IRF selective compounds. The ratio of ISRE:NFκB activity was also calculated as a selectivity index for prioritizing hit selection. Primary hits underwent secondary screening to determine the 50% effective concentration (EC50) and 50% cytotoxic concentration (CC50) of these agents using an 8-point dose-response curve in the human THP1-Dual cells. Cytotoxicity was measured in the plate using Cell Titer Glo (Promega). Identified candidate compounds were further screened (orthogonal screen) for cross species activity in the validated mouse J774-Dual assay using an 8-point dose-response format to determine EC50 and CC50 values as well as ISRE:NFκB ratios. A general process flow for the experimental design laid out above is depicted at FIG. 12.

J774-Dual cytotoxicity = type: cell-based, mouse; conditions: mouse, J774-Dual cells, read-out: J774 cytotox CC50
Method: The OTRADI Small Molecule Library of approximately 246,000 diverse compounds (see below for description) was screened using the THP1-Dual based HTS platform described above. All transfer steps in the screen are fully automated, thus reducing variability. Primary screening included a single data point or dose for each molecule. After data normalization was applied for each assay run, “hit” selection was performed on the plates that pass the quality control (QC) criterion. Hits were defined as samples having values above the activity cutoff determined based on noise level of the assay to reduce false positive rates. […] The ratio of ISRE:NFκB activity was also calculated as a selectivity index for prioritizing hit selection. Primary hits underwent secondary screening to determine the 50% effective concentration (EC50) and 50% cytotoxic concentration (CC50) of these agents using an 8-point dose-response curve in the human THP1-Dual cells. Cytotoxicity was measured in the plate using Cell Titer Glo (Promega). Identified candidate compounds were further screened (orthogonal screen) for cross species activity in the validated mouse J774-Dual assay using an 8-point dose-response format to determine EC50 and CC50 values as well as ISRE:NFκB ratios. A general process flow for the experimental design laid out above is depicted at FIG. 12.

Compound | CC50 ([1]; Human Reporter Cell Line) [µM] | CC50 (J774-Dual cytotoxicity; Mouse Reporter Cell Line) [µM] | CC50 ([1]; Human Reporter Cell Line THP1) [µM] | CC50 (J774-Dual cytotoxicity; Mouse Reporter Cell Line J774) [µM]
CC(=O)N1CCN(c2ccc(NC(=O)c3ccc(OCc4ccccc4)cc3)cc2)CC1 [NA-2] | > 25 | > 25 | – | –
O=C(Nc1ccc(N2CCN(C(=O)c3ccco3)CC2)cc1)c1ccccc1F [NA-3] | > 25 | > 25 | – | –
O=C(c1ccco1)N1CCN(c2ccccc2)CC1 [NA-5] | > 25 | > 25 | – | –
O=C(Nc1ccc(N2CCN(C(=O)c3cccs3)CC2)cc1)c1ccc(Br)o1 [NA-8] | > 25 | > 25 | – | –
O=C(Cc1cc(Br)cc(Br)c1)Nc1ccc(N2CCN(C(=O)c3cccs3)CC2)cc1 [NA-9] | > 25 | > 25 | – | –
O=C(Nc1ccc(N2CCN(C(=O)c3cccs3)CC2)cc1)c1cccc2ccccc12 [NA-11] | > 25 | > 25 | – | –
O=C(Nc1ccc(N2CCN(C(=O)c3cccs3)CC2)cc1)c1ccc2c(c1)OCO2 [NA-12] | > 25 | > 25 | – | –
O=C(Nc1ccc(N2CCN(C(=O)c3cccs3)CC2)cc1)c1ccc(Oc2ccccc2)cc1 [NA-26] | > 25 | > 25 | – | –
CCOc1ccc(C(=O)Nc2ccc(N3CCN(C(=O)c4cccs4)CC3)c(Cl)c2)cc1Br [NA-27] | > 25 | > 25 | – | –
O=C(Nc1ccc(N2CCN(C(=O)c3cccs3)CC2)c(Cl)c1)c1ccc2c(c1)OCCO2 [NA-29] | 65 | 45.8 | – | –
O=C(Nc1ccc(N2CCN(C(=O)c3cccnc3)CC2)cc1)c1ccc(OCc2ccccc2)cc1 [NA-36] | > 25 | > 25 | – | –
O=C(Nc1ccc(N2CCN(C(=O)c3ccncc3)CC2)cc1)c1ccc(OCc2ccccc2)cc1 [NA-37] | > 25 | > 25 | – | –
O=C(Nc1ccc(N2CCN(C(=O)c3cccs3)CC2)cc1)c1cncc(-c2ccccc2)c1 [NA-40] | > 25 | > 25 | – | –
O=C(Nc1ccc(N2CCN(C(=O)c3ccc(Cl)cc3)CC2)cc1)c1ccc(OCc2ccccc2)cc1 [NA-45] | 10.7 | > 25 | – | –
O=C(Nc1ccc(N2CCN(C(=O)c3cccc(Cl)c3)CC2)cc1)c1ccc(OCc2ccccc2)cc1 [NA-48] | > 25 | > 25 | – | –
O=C(NCCC(=O)N1CCN(C(=O)c2cccs2)CC1)c1ccc(OCc2ccccc2)cc1 [NA-54] | > 25 | > 25 | – | –
Cc1ccc(Cn2cc(CN3CCN(C(=O)c4cccs4)CC3)nn2)cc1 [NA-55] | > 25 | > 25 | – | –
O=C(c1cccs1)N1CCN(Cc2cn(Cc3ccc(Cl)cc3)nn2)CC1 [NA-56] | > 25 | > 25 | – | –
COc1cccc(Cn2cc(CN3CCN(C(=O)c4cccs4)CC3)nn2)c1 [NA-57] | > 25 | > 25 | – | –
O=C(c1cccs1)N1CCN(Cc2cn(Cc3ccccc3Cl)nn2)CC1 [NA-58] | > 25 | > 25 | – | –
CCOc1ccc(C(=O)Nc2ccc(N3CCN(C(=O)c4cccs4)CC3)cc2)cc1[N+](=O)[O-] [NA-65] | > 10 | > 10 | – | –
O=C(Nc1ccc(N2CCN(C(=O)c3cccs3)CC2)c(Cl)c1)c1cc([N+](=O)[O-])ccc1N1CCOCC1 [NA-66] | > 10 | > 10 | – | –
O=C(Nc1ccc(N2CCN(C(=O)c3cccs3)CC2)cc1)c1ccccc1Br [NA-67] | > 10 | > 10 | – | –
O=C(Nc1ccc(N2CCN(C(=O)c3cccs3)CC2)cc1)c1cccc(Oc2ccccc2)c1 [NA-68] | > 10 | > 10 | – | –

Compound | CC50 ([1]; Human Reporter Cell Line) [µM] | CC50 (J774-Dual cytotoxicity; Mouse Reporter Cell Line) [µM] | CC50 ([1]; Human Reporter Cell Line THP1) [µM] | CC50 (J774-Dual cytotoxicity; Mouse Reporter Cell Line J774) [µM]
O=C(c1cccs1)N1CCN(c2ccc(NS(=O)(=O)c3ccc(-c4ccccc4)cc3)cc2)CC1 [NA-69] | > 10 | > 10 | – | –
O=C(Nc1ccc(N2CCN(C(=O)c3cccs3)CC2)cc1)c1ccc(N2CCCCC2)c([N+](=O)[O-])c1 [NA-70] | > 10 | > 10 | – | –
O=C(Nc1ccc(-c2ccccc2)cc1)Nc1ccc(N2CCN(C(=O)c3cccs3)CC2)cc1 [NA-72] | > 10 | > 10 | – | –
O=C(Nc1ccc(N2CCN(C(=O)c3cccs3)CC2)c(Cl)c1)c1ccc(OCc2ccccc2)cc1 [NA-73] | > 10 | > 10 | – | –
Cc1cc(NC(=O)c2ccc(OCc3ccccc3)cc2)ccc1N1CCN(C(=O)c2cccs2)CC1 [NA-74] | > 10 | > 10 | – | –
Cc1ccc(C(=O)Nc2cc(-c3nc4cc(C(C)C)ccc4o3)ccc2C)cc1C [ND-9] | – | – | > 25 | > 25
COc1ccc(C(=O)Nc2cc(-c3nc4cc(C(C)C)ccc4o3)ccc2C)cc1 [ND-10] | – | – | > 25 | > 25
Cc1ccc(-c2nc3cc(C(C)C)ccc3o2)cc1NC(=S)NC(=O)c1cccc(F)c1 [ND-11] | – | – | > 25 | > 25
Cc1ccc(-c2nc3cc(C(C)C)ccc3o2)cc1NC(=O)c1cc2ccccc2o1 [ND-12] | – | – | 47.6 | > 25
COc1cc(C(=O)Nc2cc(-c3nc4cc(C(C)C)ccc4o3)ccc2C)cc(OC)c1OC [ND-14] | – | – | > 25 | > 25
COc1ccc(-c2nc3cc(C(C)C)ccc3o2)cc1NC(=O)c1cccc([N+](=O)[O-])c1C [ND-15] | – | – | > 25 | > 25
CCOc1ccc(C(=O)Nc2cccc(-c3nc4cc(C(C)C)ccc4o3)c2)cc1[N+](=O)[O-] [ND-17] | – | – | > 25 | > 25
COc1ccc(C(=O)Nc2nc(-c3cc4ccccc4oc3=O)cs2)cc1[N+](=O)[O-] [ND-29] | – | – | > 25 | > 25
Cc1ccc(C(=O)Nc2nc(C)c(-c3ccccc3)s2)cc1[N+](=O)[O-] [ND-32] | – | – | > 25 | > 25
Cc1cc2nc(-c3ccc(C)c(NC(=O)c4cc([N+](=O)[O-])ccc4Cl)c3)oc2cc1C [ND-33] | – | – | > 25 | > 25
CCOc1ccc(C(=O)Nc2ccc3oc(-c4cccnc4)nc3c2)cc1[N+](=O)[O-] [ND-44] | – | – | > 25 | > 25
COc1ccc(C(=O)Nc2ccc(Cl)c(-c3nc4cc(C)c(C)cc4o3)c2)cc1[N+](=O)[O-] [ND-45] | – | – | 12.9 | > 25
Cc1ccc(-c2nc3cc(NC(=O)c4ccc(C)c([N+](=O)[O-])c4)ccc3o2)cc1 [ND-49] | – | – | 5.52 | > 25
Cc1cc(C(=O)Nc2cc(-c3nc4ccccc4s3)ccc2Cl)ccc1[N+](=O)[O-] [ND-51] | – | – | 22.1 | > 25
Cc1ccc(-c2nc3cc(C(C)C)ccc3o2)cc1NC(=O)c1ccc(Cl)cc1 [ND-53] | – | – | > 25 | > 25
Cc1ccc(-c2nc3cc(C(C)C)ccc3o2)cc1NC(=O)c1ccc(F)c([N+](=O)[O-])c1 [ND-54] | – | – | 6.84 | > 25
Cc1ccc(C(=O)Nc2cc(C(C)C)ccc2O)cc1[N+](=O)[O-] [ND-55] | – | – | > 25 | > 25
Cc1cc2nc(-c3ccc(C)c(Nc4[nH]c(=O)[nH]c(=O)c4[N+](=O)[O-])c3)oc2cc1C [ND-56] | – | – | > 25 | > 25
